Measurements published in ChEMBL document CHEMBL1914411, “Synthesis of lipophilic dimeric C-7/C-7-linked ciprofloxacin and C-6/C-6-linked levofloxacin derivatives. Versatile in vitro biological evaluations of monomeric and dimeric fluoroquinolone derivatives as potential antitumor, antibacterial or antimycobacterial agents” (Eur J Med Chem, 2011).
In brackets after ≈: the same amount, converted by molar mass. Activity calls are given as the source filed them. How the calls were made is not given here.

Columns and labels:
[1] = Antiproliferative activity against human U373MG cells after 120 hrs by MTT asasy; assay type: functional, cell-based, U-373MG ATCC; settings: U373 MG
A549 = test: Antiproliferative activity against human A549 cells after 120 hrs by MTT asasy; assay type: functional, cell-based; settings: A549, 120 h
PC-3 = test: Antiproliferative activity against human PC3 cells after 120 hrs by MTT asasy; assay type: functional, cell-based; settings: PC-3, 120 h
MCF7 = test: Antiproliferative activity against human MCF7 cells after 120 hrs by MTT asasy; assay type: functional, cell-based; settings: MCF7, 120 h
Staphylococcus aureus [2] = test: Antimicrobial activity against Staphylococcus aureus CIP 4.83 after 18 to 24 hrs by broth microdilution method; assay type: functional
Enterococcus hirae = test: Antimicrobial activity against Enterococcus hirae CIP 5855 after 18 to 24 hrs by broth microdilution method; assay type: functional
Pseudomonas aeruginosa = test: Antimicrobial activity against Pseudomonas aeruginosa CIP 82.118 after 18 to 24 hrs by broth microdilution method; assay type: functional
Escherichia coli = test: Antimicrobial activity against Escherichia coli CIP 53126 after 18 to 24 hrs by broth microdilution method; assay type: functional
[3] = test system: Mycobacterium tuberculosis; test: Antimycobacterial activity against Mycobacterium tuberculosis H37Rv after 6 days by MTT colorimetric microassay; assay type: functional, organism-based; settings: 144 h
[4] = test system: Mycobacterium tuberculosis; test: Antimycobacterial activity against Mycobacterium tuberculosis H37Rv assessed as growth inhibition at 10 uM after 6 days by MTT colorimetric microassay; assay type: functional; settings: 144 h, read-out: GI
[5] = test system: Mycobacterium tuberculosis; test: Antimycobacterial activity against Mycobacterium tuberculosis H37Rv assessed as growth inhibition at 1 uM after 6 days by MTT colorimetric microassay; assay type: functional; settings: 144 h, read-out: GI
[6] = test system: Mycobacterium tuberculosis; test: Antimycobacterial activity against Mycobacterium tuberculosis H37Rv assessed as growth inhibition at 0.1 uM after 6 days by MTT colorimetric microassay; assay type: functional, organism-based
LoVo = test: Antiproliferative activity against human LoVo cells after 120 hrs by MTT asasy; assay type: functional, cell-based
[7] = Solubility of compound in cell medium at 20 uM at 37 degC after 24 hrs; assay type: physicochemical
Staphylococcus aureus [8] = test: Antimicrobial activity against methicillin-resistant Staphylococcus aureus ATCC 33591 after 18 to 24 hrs by broth microdilution method; assay type: functional
Staphylococcus aureus [9] = test: Antimicrobial activity against methicillin-resistant Staphylococcus aureus ATCC 33592 after 18 to 24 hrs by broth microdilution method; assay type: functional
Staphylococcus aureus [10] = test: Antimicrobial activity against multidrug-resistant Staphylococcus aureus isolate 1 after 18 to 24 hrs by broth microdilution method; assay type: functional
Staphylococcus aureus [11] = test: Antimicrobial activity against multidrug-resistant Staphylococcus aureus isolate 2 after 18 to 24 hrs by broth microdilution method; assay type: functional
Staphylococcus aureus [12] = test: Ratio of ciprofloxacin MIC to compound MIC for methicillin-resistant Staphylococcus aureus ATCC 33592; assay type: functional

C[C@H]1COc2c(N3CCN(C)CC3)c(F)cc3c(=O)c(C(=O)O)cn1c23 [LEVOFLOXACIN]
IC50 [1]: 67000 nM
IC50 (A549): 67000 nM
IC50 (PC-3): 67000 nM
IC50 (MCF7): 67000 nM
MBC (Staphylococcus aureus [2]): ≤ 0.97 µM
MIC (Staphylococcus aureus [2]): ≤ 0.97 µM
MBC (Enterococcus hirae): 1.9 µM (≈ 0.687 µg/mL)
MIC (Enterococcus hirae): ≤ 0.97 µM
MBC (Pseudomonas aeruginosa): ≤ 0.97 µM
MIC (Pseudomonas aeruginosa): ≤ 0.97 µM
MBC (Escherichia coli): ≤ 0.97 µM
MIC (Escherichia coli): ≤ 0.97 µM
IC50 [3]: 800 nM
MIC [3]: 2.5 µM (≈ 0.903 µg/mL)
inhibition of growth at 10 µM [4]: 96%
inhibition of growth at 1 µM [5]: 85%
growth inhibition (GI) [6]: inactive

C[C@H]1COc2c(N3CCN(C)CC3)c(F)cc3c(=O)c(C(=O)NCCCCCCCCCNC(=O)c4cn5c6c(c(N7CCN(C)CC7)c(F)cc6c4=O)OC[C@@H]5C)cn1c23
IC50 [1]: 200 nM
IC50 (A549): 200 nM
IC50 (PC-3): 200 nM
IC50 (LoVo): 200 nM
IC50 (MCF7): 200 nM
MBC (Staphylococcus aureus [2]): 31.2 µM (≈ 26.4 µg/mL)
MIC (Staphylococcus aureus [2]): 31.2 µM (≈ 26.4 µg/mL)
MBC (Enterococcus hirae): 31.2 µM (≈ 26.4 µg/mL)
MIC (Enterococcus hirae): 31.2 µM (≈ 26.4 µg/mL)
MBC (Pseudomonas aeruginosa): 250 µM (≈ 211 µg/mL)
MIC (Pseudomonas aeruginosa): 62.5 µM (≈ 52.8 µg/mL)
MBC (Escherichia coli): 3.9 µM (≈ 3.3 µg/mL)
MIC (Escherichia coli): 3.9 µM (≈ 3.3 µg/mL)
IC50 [3]: 2500 nM
MIC [3]: 5 µM (≈ 4.23 µg/mL)
inhibition of growth at 10 µM [4]: 60%
inhibition of growth at 1 µM [5]: 20%
growth inhibition (GI) [6]: inactive
solubility [7]: soluble

CCCCOC(=O)N1CCN(c2cc3c(cc2F)c(=O)c(C(=O)O)cn3C2CC2)CC1
IC50 [1]: 31000 nM
MBC (Staphylococcus aureus [2]): ≤ 0.12 µM
MIC (Staphylococcus aureus [2]): ≤ 0.06 µM
MBC (Enterococcus hirae): 7.8 µM (≈ 3.37 µg/mL)
MIC (Enterococcus hirae): 3.9 µM (≈ 1.68 µg/mL)
MBC (Pseudomonas aeruginosa): 250 µM (≈ 108 µg/mL)
MIC (Pseudomonas aeruginosa): 62.5 µM (≈ 27 µg/mL)
MBC (Escherichia coli): 31.2 µM (≈ 13.5 µg/mL)
MIC (Escherichia coli): 7.8 µM (≈ 3.37 µg/mL)
MBC (Staphylococcus aureus [8]): 0.12 µM (≈ 0.0518 µg/mL)
MIC (Staphylococcus aureus [8]): 0.03 µM (≈ 0.0129 µg/mL)
MBC (Staphylococcus aureus [9]): 0.12 µM (≈ 0.0518 µg/mL)
MBC (Staphylococcus aureus [10]): 500 µM (≈ 216 µg/mL)
MIC (Staphylococcus aureus [10]): 62.5 µM (≈ 27 µg/mL)
MBC (Staphylococcus aureus [11]): 31.2 µM (≈ 13.5 µg/mL)
MIC (Staphylococcus aureus [11]): 31.2 µM (≈ 13.5 µg/mL)
Ratio (Staphylococcus aureus [12]): 63
growth inhibition (GI) [6]: inactive

C[C@H]1COc2c(N3CCN(C)CC3)c(F)cc3c(=O)c(C(=O)NCCCCCCCCCCCCNC(=O)c4cn5c6c(c(N7CCN(C)CC7)c(F)cc6c4=O)OC[C@@H]5C)cn1c23
MBC (Staphylococcus aureus [2]): 1.9 µM (≈ 1.69 µg/mL)
MIC (Staphylococcus aureus [2]): 1.9 µM (≈ 1.69 µg/mL)
MBC (Enterococcus hirae): 3.9 µM (≈ 3.46 µg/mL)
MIC (Enterococcus hirae): 3.9 µM (≈ 3.46 µg/mL)
MBC (Pseudomonas aeruginosa): 31.2 µM (≈ 27.7 µg/mL)
MIC (Pseudomonas aeruginosa): 31.2 µM (≈ 27.7 µg/mL)
MBC (Escherichia coli): ≤ 0.97 µM
MIC (Escherichia coli): ≤ 0.97 µM
IC50 [3]: 2100 nM
MIC [3]: 5 µM (≈ 4.44 µg/mL)
inhibition of growth at 10 µM [4]: 60%
growth inhibition (GI) [6]: inactive
solubility [7]: Insoluble

O=C(O)c1cn(C2CC2)c2cc(N3CCN(C(=O)CCCCCCCCCCCCCC(=O)N4CCN(c5cc6c(cc5F)c(=O)c(C(=O)O)cn6C5CC5)CC4)CC3)c(F)cc2c1=O
MBC (Staphylococcus aureus [2]): 1.9 µM (≈ 1.71 µg/mL)
MIC (Staphylococcus aureus [2]): ≤ 0.06 µM
MBC (Enterococcus hirae): 500 µM (≈ 450 µg/mL)
MIC (Enterococcus hirae): 125 µM (≈ 112 µg/mL)
MBC (Pseudomonas aeruginosa): 250 µM (≈ 225 µg/mL)
MIC (Pseudomonas aeruginosa): 62.5 µM (≈ 56.2 µg/mL)
MBC (Escherichia coli): 500 µM (≈ 450 µg/mL)
MIC (Escherichia coli): 62.5 µM (≈ 56.2 µg/mL)
MBC (Staphylococcus aureus [8]): 0.97 µM (≈ 0.872 µg/mL)
MIC (Staphylococcus aureus [8]): 0.06 µM (≈ 0.0539 µg/mL)
MBC (Staphylococcus aureus [9]): 0.48 µM (≈ 0.432 µg/mL)
MIC (Staphylococcus aureus [9]): 0.06 µM (≈ 0.0539 µg/mL)
MBC (Staphylococcus aureus [10]): 500 µM (≈ 450 µg/mL)
MIC (Staphylococcus aureus [10]): 1.9 µM (≈ 1.71 µg/mL)
MBC (Staphylococcus aureus [11]): 31.2 µM (≈ 28.1 µg/mL)
MIC (Staphylococcus aureus [11]): 15.6 µM (≈ 14 µg/mL)
Ratio (Staphylococcus aureus [12]): 8
inhibition of growth at 10 µM [4]: 40%
growth inhibition (GI) [6]: inactive
